Results as given in US20070259856A1, “Method for Activating Trpv4 Channel Receptors by Agonists” (priority 2004, published 2007).

Columns and labels:
wild type HEK293 cells = experiment: Intracellular calcium (FLIPR) in wild type HEK293 cells; type: cell-based; set-up: key to pEC50 wild type: IA = inactive
Procedure: (§1) TRPV4 channel receptor cDNA was inserted into the expression vector pcDNA3.1 V5-His (Invitrogen, Carlsbad, Calif.). Wildtype HEK293 cells, or HEK293 cells transfected with the human TRPV4 channel receptor: pcDNA3.1 V5-His construct, or mock transfected cells, or bovine chondrocytes, were seeded into 96-well microtitre plates at 25,000 cells/well and cultured overnight. The cells were then incubated with 4 μM Fluo-3 (Fluo-3: Molecular Probes (Eugene, Oreg.)) for 2 hours at room temperature in the dark. Dye loaded cells were washed 4× with Tyrodes buffer: (NaCl, 145 mM; KCl, 2.5 mM; Hepes, 10 mM; Glucose, 10 mM; MgCl2, 1.2 mM; CaCl2, 1.5 mM), which also contained 0.2% BSA but not probenecid. Agonists and antagonists were also prepared in Tyrodes buffer. Cells were preincubated for 30 minutes with antagonist or buffer. Agonist addition and measurement of cytoplasmic calcium concentration was performed in the FLIPR (Smart, et al., (2000) Br. J. Pharmacol. 129, 227-230).

[1] = test system: cells transfected with empty vector; experiment: Intracellular calcium (FLIPR) in HEK293 cells transfected with empty vector; type: cell-based; set-up: key to pEC50 empty vector: IA = inactive
Procedure: as §1

TRPVR1 = TRPVR1 (Homo sapiens, UniProt Q8NER1); type: cell-based; set-up: key to pEC50 TRPVR1: IA = inactive
Chain of TRPVR1 (Q8NER1 whole entry): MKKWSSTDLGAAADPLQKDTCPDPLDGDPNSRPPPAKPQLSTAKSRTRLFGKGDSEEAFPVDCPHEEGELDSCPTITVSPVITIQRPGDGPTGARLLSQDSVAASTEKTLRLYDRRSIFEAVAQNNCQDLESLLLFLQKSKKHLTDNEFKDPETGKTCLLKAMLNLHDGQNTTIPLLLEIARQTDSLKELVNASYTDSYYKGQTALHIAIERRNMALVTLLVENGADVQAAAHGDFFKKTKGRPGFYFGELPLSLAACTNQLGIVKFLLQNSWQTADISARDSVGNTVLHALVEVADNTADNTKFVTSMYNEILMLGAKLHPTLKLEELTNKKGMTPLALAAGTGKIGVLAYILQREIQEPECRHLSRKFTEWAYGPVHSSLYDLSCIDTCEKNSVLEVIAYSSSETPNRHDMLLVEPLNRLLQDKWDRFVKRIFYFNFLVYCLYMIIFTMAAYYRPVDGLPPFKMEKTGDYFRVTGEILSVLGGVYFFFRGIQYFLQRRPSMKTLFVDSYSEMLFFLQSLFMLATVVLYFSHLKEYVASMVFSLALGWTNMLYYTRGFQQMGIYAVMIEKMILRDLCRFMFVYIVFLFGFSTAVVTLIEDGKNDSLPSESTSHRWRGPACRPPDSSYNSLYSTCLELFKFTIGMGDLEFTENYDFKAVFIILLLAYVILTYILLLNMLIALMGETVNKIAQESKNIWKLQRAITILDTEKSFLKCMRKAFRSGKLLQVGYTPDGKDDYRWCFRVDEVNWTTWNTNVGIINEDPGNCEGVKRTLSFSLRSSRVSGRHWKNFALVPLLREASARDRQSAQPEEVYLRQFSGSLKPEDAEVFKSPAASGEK

TRPV4 channel receptor [2] = molecular target: T1, TRPV4 channel receptor (Bos taurus, UniProt A0A8F4X677); experiment: Ca2+ influx in bovine articular chondrocytes (FlexStation); type: cell-based; settings: bovine chondrocytes
T1 construct: endogenous in cells; host or cells: bovine articular chondrocytes
T1 sequence (A0A8F4X677 1-871): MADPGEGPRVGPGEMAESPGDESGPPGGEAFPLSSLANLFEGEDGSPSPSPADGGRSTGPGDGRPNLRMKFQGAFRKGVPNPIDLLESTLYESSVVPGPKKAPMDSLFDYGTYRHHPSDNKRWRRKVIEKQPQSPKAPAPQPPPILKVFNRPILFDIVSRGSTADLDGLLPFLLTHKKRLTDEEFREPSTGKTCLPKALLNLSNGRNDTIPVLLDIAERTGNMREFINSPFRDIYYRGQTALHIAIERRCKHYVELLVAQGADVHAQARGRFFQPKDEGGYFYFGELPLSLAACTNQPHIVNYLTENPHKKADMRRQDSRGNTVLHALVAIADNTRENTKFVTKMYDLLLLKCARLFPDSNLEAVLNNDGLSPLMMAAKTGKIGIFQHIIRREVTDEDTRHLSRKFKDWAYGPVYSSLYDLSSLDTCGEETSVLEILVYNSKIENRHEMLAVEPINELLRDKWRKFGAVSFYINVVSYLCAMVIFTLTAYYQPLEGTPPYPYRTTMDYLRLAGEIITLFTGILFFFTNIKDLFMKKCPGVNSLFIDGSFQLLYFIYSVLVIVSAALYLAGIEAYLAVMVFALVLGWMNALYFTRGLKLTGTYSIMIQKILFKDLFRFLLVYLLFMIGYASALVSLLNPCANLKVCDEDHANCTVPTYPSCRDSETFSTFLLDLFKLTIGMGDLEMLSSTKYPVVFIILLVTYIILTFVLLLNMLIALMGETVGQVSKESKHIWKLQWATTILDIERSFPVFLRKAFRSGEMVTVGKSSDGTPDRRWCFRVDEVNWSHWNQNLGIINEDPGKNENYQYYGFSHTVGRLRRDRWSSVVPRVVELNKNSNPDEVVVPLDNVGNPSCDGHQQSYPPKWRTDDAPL

TRPV4 channel receptors = experiment: Activation of TRPV4 channel receptors in cartilage explants; type: cell-based, human, rat, rabbit, mouse, canine, monkey, or bovine; settings: compared with chondrocytes extracted from a cartilage matrix
TRPV4 channel receptor [3] = molecular target: TRPV4 channel receptor (Rattus norvegicus, UniProt Q9ERZ8); experiment: Ca2+ influx in rat articular chondrocytes (FlexStation); settings: rat chondrocytes
Chain of TRPV4 channel receptor (Rattus norvegicus, UniProt Q9ERZ8) (Q9ERZ8 whole entry): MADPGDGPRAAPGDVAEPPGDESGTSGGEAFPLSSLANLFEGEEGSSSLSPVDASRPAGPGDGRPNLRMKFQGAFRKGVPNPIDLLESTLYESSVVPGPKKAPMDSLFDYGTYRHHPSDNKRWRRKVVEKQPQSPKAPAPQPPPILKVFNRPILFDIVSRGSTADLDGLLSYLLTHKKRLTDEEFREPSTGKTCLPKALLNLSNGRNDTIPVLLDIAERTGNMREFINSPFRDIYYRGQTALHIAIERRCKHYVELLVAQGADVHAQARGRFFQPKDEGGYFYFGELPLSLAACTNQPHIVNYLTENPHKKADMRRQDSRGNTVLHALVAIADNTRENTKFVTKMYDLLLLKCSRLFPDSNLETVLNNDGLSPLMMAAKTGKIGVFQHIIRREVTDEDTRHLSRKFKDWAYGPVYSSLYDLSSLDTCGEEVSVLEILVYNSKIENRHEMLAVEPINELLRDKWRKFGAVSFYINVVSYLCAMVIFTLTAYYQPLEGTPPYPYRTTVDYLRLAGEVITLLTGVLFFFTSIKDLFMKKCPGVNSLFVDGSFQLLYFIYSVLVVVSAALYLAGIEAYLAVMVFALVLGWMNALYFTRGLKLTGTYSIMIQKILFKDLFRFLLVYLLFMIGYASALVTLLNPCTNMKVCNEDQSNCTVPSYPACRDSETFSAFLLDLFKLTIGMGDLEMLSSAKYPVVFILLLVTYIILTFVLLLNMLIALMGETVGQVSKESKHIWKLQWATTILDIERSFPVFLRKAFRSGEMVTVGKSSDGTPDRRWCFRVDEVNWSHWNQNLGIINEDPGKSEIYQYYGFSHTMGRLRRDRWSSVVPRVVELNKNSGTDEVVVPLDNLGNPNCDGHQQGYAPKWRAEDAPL

TRPV4 channel receptor [4] = molecular target: T2, TRPV4 channel receptor (Homo sapiens, UniProt Q9HBA0); experiment: Ca2+ influx in human articular chondrocytes (FlexStation); settings: human chondrocytes
T2 sequence (Q9HBA0 whole entry): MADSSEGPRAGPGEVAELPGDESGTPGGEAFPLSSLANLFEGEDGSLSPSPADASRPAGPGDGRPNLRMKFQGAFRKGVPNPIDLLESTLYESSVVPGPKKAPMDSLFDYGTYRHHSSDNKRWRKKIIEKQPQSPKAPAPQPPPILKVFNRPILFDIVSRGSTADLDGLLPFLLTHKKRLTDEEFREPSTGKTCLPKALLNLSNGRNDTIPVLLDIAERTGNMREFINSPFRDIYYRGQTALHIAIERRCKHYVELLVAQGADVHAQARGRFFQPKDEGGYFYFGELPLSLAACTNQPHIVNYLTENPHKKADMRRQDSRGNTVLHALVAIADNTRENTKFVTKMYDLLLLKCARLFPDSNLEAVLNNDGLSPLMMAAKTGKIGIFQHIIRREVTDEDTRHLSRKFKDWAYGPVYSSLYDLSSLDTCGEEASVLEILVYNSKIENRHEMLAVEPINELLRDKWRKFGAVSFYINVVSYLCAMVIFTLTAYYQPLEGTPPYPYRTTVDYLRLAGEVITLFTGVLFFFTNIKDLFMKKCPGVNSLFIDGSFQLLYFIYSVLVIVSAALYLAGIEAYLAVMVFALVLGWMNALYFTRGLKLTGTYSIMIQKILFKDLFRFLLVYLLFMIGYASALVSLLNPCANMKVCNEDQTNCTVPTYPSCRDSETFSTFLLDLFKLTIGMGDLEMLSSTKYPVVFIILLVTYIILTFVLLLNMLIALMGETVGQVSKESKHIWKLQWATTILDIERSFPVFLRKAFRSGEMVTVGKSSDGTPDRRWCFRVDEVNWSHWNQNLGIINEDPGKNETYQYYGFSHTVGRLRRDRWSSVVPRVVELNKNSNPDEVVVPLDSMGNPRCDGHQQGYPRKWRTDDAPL

TRPV4 channel receptor [5] = molecular target: T2, TRPV4 channel receptor; experiment: Intracellular calcium (FLIPR, Fluo-3) in HEK293 cells transfected with human TRPV4 channel receptor; type: cell-based; set-up: V5-His (from the vector's name only); expressed in transfected cells; host or cells: HEK293
Procedure: as §1

MMP-3 = experiment: IL-1 induced MMP-3 production in human chondrocytes; type: cell-based; settings: IL-1 10 ng/mL, 24 hours
Procedure: (§2) Human chondrocytes were exposed to L-1 (10 ng/mL) to induce MMP-3 and MMP-13 production. Increased production of MMP-3 and MMP-13 was verified by both Northern blot (mRNA) and ELISA assay (protein). Cells were exposed to Formula IIb at concentrations ranging from 0.1 μM to 10 μM. […] TRPV4 channel receptor agonist inhibits IL-1-induced MMP-3 and MMP-13 production.

MMP-13 = experiment: IL-1 induced MMP-13 production in human chondrocytes; type: cell-based; settings: IL-1 10 ng/mL, 24 hours
Procedure: as §2

aggrecanase = experiment: IL-1 induced aggrecanase production, chondrocyte-based aggrecanase peptide cleavage assay; type: cell-based, bovine; settings: IL-1 3.0 ng/mL; for Aggrecanase Production (Mean ± SEM OD 450 nm): 24 hour
Description: Aggrecanases (ADAMTSs), in conjunction with MMPs, degrade aggrecan, one of the major matrix components in articular cartilage. […] 2003; 48(1): 119-133].

ADAMTS-4 (aggrecanase-1) = molecular target: T3, ADAMTS-4 (aggrecanase-1) (Homo sapiens, UniProt O75173); experiment: Cleavage of the peptide substrate by soluble ADAMTS-4; type: biochemical
T3 sequence (O75173 213-837): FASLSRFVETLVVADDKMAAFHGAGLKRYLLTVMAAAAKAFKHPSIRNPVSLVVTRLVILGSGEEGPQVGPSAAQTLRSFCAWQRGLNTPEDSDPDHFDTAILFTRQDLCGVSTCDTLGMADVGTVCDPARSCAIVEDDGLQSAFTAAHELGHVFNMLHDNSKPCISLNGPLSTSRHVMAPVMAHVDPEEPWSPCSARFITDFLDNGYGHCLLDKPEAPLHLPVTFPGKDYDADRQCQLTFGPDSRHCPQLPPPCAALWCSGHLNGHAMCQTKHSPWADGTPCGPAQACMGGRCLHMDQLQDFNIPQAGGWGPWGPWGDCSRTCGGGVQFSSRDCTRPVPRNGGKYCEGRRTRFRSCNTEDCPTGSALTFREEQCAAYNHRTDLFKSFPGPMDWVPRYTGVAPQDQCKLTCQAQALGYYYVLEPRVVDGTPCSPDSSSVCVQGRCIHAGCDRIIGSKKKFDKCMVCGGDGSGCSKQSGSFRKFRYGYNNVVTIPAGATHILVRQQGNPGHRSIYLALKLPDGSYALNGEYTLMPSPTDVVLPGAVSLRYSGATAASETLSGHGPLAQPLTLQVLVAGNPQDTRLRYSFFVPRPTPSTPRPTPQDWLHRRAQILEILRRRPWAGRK

[6] = test system: bovine articular cartilage explants; experiment: IL-1 induced collagen degradation (hydroxyproline) in bovine articular cartilage explants; type: cell-based; settings: 1 uM, IL-1 50 ng/ml, media from day 14-18
Procedure: IL-1 stimulates collagen degradation in bovine articular cartilage explants after extended (−2-3 weeks) exposure to IL-1. Collagen breakdown was evaluated by measuring the levels of hydroxyproline, a major component of hydrolyzed collagen fibrils, using a colorimetric assay that is understood in the art. Bovine articular cartilage was stimulated with IL-1 for 18 days, in the absence or presence of Formula Ib or Formula IId (both at 1 uM). Media was removed and replaced every 2-4 days with fresh IL-1 and compound through day 18. As has been shown previously, aggrecan degradation precedes collagen breakdown in IL-1-stimulated bovine cartilage explants. Once aggrecan depletion had been achieved by day 10, media were analyzed for collagen breakdown using the hydroxyproline assay.

nitric oxide = experiment: IL-1 induced nitric oxide production, bovine articular chondrocytes in alginate beads (Greiss reaction); type: cell-based; settings: IL-1 10 ng/mL
Procedure: Nitric oxide (NO) is a free radical that is believed to contribute to the tissue destruction in osteoarthritis. While having direct effects on cartilage matrix damage, NO can also contribute by activating latent proteases which leads to increased tissue destruction. To evaluate the effect of TRPV4 channel receptor agonists on NO production, bovine articular chondrocytes were embedded in alginate beads as described in Hauselmann, et al. (1992) Matrix 12: 116-129, and NO levels were determined in the conditioned media by Greiss reaction (Badger A M, et al. (1998) J. Immunol. 161: 467-473), following stimulation by IL-1, in the absence or presence of TRPV4 channel receptor agonist.

proteoglycan synthesis = experiment: Proteoglycan synthesis ([35S] incorporation), bovine articular chondrocytes in alginate beads; type: cell-based; settings: IL-1 10 ng/mL
Description: Although cartilage degradation is the hallmark of osteoarthritis, there is also a reduction in the ability of chondrocytes to resynthesize damaged matrix. It has been observed that cytokines, including IL-1, cause a significant reduction in collagen and proteoglycan (PG) synthesis. The effect on matrix synthesis, combined with the stimulation of matrix breakdown by these cytokines, leads to an overall net loss of cartilage matrix. The effects of TRPV4 channel receptor agonists on the synthesis of proteoglycans was measured by [^35S] incorporation in bovine articular chondrocytes embedded in alginate beads. IL-1 caused an inhibition of [^35S] incorporation into large molecular weight proteoglycan monomers, and Formula IIb caused a concentration-dependent reversal of the IL1-mediated inhibition of PG synthesis as shown in Table 10.

[7] = molecular target: T4, TRPV4 channel receptor endogenously expressed by chondrocytes (Bos taurus, UniProt A0A8F4X677); experiment: Intracellular calcium (FLIPR) in bovine articular chondrocytes; type: cell-based
T4 construct: endogenous in cells; host or cells: bovine articular chondrocytes
T4 sequence (A0A8F4X677 1-871): as the sequence (A0A8F4X677 1-871) above
Procedure: as §1
The response was dependent upon extracellular calcium ions and was blocked by the channel blocker, ruthenium red.

[8] = intracellular calcium, mean ± s.e.mean, n = 3-5

CCCCCCCCCC(=O)O[C@@H]1[C@@H](C)[C@@]2(O)[C@@H](C=C(CO)C[C@@]3(O)C(=O)C(C)=C[C@@H]23)[C@@H]2C(C)(C)[C@]12OC(=O)CCCCCCCCC [Formula 4αPDD, 4α-phorbol-12,13-didecanoate]
effect on intracellular calcium in wild type HEK293 cells (wild type HEK293 cells): without effect
pEC50 wild type (wild type HEK293 cells; [8]): IA
effect on intracellular calcium in cells transfected with empty vector [1]: without effect
pEC50 empty vector [1, 8]: IA
activation of VR1 (TRPVR1): did not activate VR1
pEC50 TRPVR1 (TRPVR1; [8]): IA
Ca2+ influx (TRPV4 channel receptor [2]): stimulated Ca^2+ influx
potency and efficacy in activating TRPV4 channel receptors in cartilage explants (TRPV4 channel receptors): greatly diminished
Ca2+ influx (TRPV4 channel receptor [3]): stimulated Ca^2+ influx
Ca2+ influx (TRPV4 channel receptor [4]): stimulated Ca^2+ influx
intracellular calcium in HEK293-TRPV4 channel receptor cells (TRPV4 channel receptor [5]): increased intracellular calcium
pEC50 TRPVR4 (TRPV4 channel receptor [5]; [8]): 5.73 ± 0.06

CC(C)C[C@H](NC(=O)c1cc2ccccc2s1)C(=O)N[C@@H]1CCCN(S(=O)(=O)c2ccc(F)cc2)CC1=O [Formula IIb, N-{(1S)-1-[({(4R)-1-[(4-fluorophenyl)sulfonyl]-3-oxohexahydro-1H-azepin-4-yl}amino)carbonyl]-3-methylbutyl}-1-benzothiophene-2-carboxamide]
MMP-3 mRNA expression Mean (MMP-3; 0.1 μM): 0.92 Fraction of IL-1
MMP-3 mRNA expression Mean (MMP-3; 0.3 μM): 0.91 Fraction of IL-1
MMP-3 mRNA expression Mean (MMP-3; 1.0 μM): 0.88 Fraction of IL-1
MMP-3 mRNA expression Mean (MMP-3; 3.0 μM): 0.68 Fraction of IL-1
MMP-3 mRNA expression Mean (MMP-3; 10.00 μM): 0.43 Fraction of IL-1
MMP-13 mRNA expression Mean (MMP-13; 0.1 μM): 0.89 Fraction of IL-1
MMP-13 mRNA expression Mean (MMP-13; 0.3 μM): 0.87 Fraction of IL-1
MMP-13 mRNA expression Mean (MMP-13; 1.0 μM): 0.79 Fraction of IL-1
MMP-13 mRNA expression Mean (MMP-13; 3.0 μM): 0.29 Fraction of IL-1
MMP-13 mRNA expression Mean (MMP-13; 10.00 μM): 0.09 Fraction of IL-1
Aggrecanase Production (Mean ± SEM OD 450 nm) (aggrecanase; 0.03 μM): 2.018 ± 0.044 OD 450 nm
Aggrecanase Production (Mean ± SEM OD 450 nm) (aggrecanase; 0.10 μM): 1.669 ± 0.029 OD 450 nm
Aggrecanase Production (Mean ± SEM OD 450 nm) (aggrecanase; 0.30 μM): 1.139 ± 0.032 OD 450 nm
Aggrecanase Production (Mean ± SEM OD 450 nm) (aggrecanase; 1.00 μM): 0.851 ± 0.024 OD 450 nm
inhibition at 0.03 µM (aggrecanase; Bos taurus, 0.03 μM): 11%
inhibition at 0.1 µM (aggrecanase; Bos taurus, 0.10 μM): 33%
inhibition at 0.3 µM (aggrecanase; Bos taurus, 0.30 μM): 65%
inhibition at 1 µM (aggrecanase; Bos taurus, 1.00 μM): 83%
effect on cleavage of the peptide substrate by soluble ADAMTS-4 (ADAMTS-4 (aggrecanase-1)): no effect
Hydroxyproline Mean ± SEM [6]: 16 ± 6 µg
inhibition at 1 µM ([6]; Bos taurus, 336 h): 81%
NO levels Mean ± SEM (nitric oxide; 0.3 μM): 17 ± 1 µM
NO levels Mean ± SEM (nitric oxide; 1.0 μM): 6 ± 1 µM
NO levels Mean ± SEM (nitric oxide; 3.0 μM): 2 ± 0 µM
inhibition at 0.3 µM (nitric oxide; Bos taurus, Chondrocyte, 0.3 μM, read-out: % inhibition of NO): 38%
inhibition at 1 µM (nitric oxide; Bos taurus, Chondrocyte, 1.0 μM, read-out: % inhibition of NO): 81%
inhibition at 3 µM (nitric oxide; Bos taurus, Chondrocyte, 3.0 μM, read-out: % inhibition of NO): 96%
% IL-1 reversal (proteoglycan synthesis; 0.3 uM): 3%
PG synthesis Mean ± SEM (proteoglycan synthesis; 0.3 uM): 878 ± 48 cpm/bead
% IL-1 reversal (proteoglycan synthesis; 1.0 uM): 15%
PG synthesis Mean ± SEM (proteoglycan synthesis; 1.0 uM): 1066 ± 69 cpm/bead
% IL-1 reversal (proteoglycan synthesis; 3.0 uM): 44%
PG synthesis Mean ± SEM (proteoglycan synthesis; 3.0 uM): 1530 ± 73 cpm/bead

N.N.N.N.N.N.N.N.N.N.N.N.N.N.[Cl-].[Cl-].[Cl-].[Cl-].[Cl-].[Cl-].[O-2].[O-2].[Ru+3].[Ru+3].[Ru+4] [Ruthenium Red, reference compound]
block of the response to 4α-PDD [7]: blocked
reversal of the effects of 4α-PDD on Ca2+ influx (TRPV4 channel receptor [2]): reduce Ca^2+ influx down to baseline levels
reversal of the effects of 4α-PDD on Ca2+ influx (TRPV4 channel receptor [3]): reduce Ca^2+ influx down to baseline levels
reversal of the effects of 4α-PDD on Ca2+ influx (TRPV4 channel receptor [4]): reduce Ca^2+ influx down to baseline levels
